# Source: patent publication US20080039531A1, “Compositions, and kits comprising targeted aldehyde or acetal protease inhibitor compounds for treating muscle disorders” (priority 2005, published 2008)
# “And” between values parts separate entries of the source, which are not always exact repeats. Equal entries are not always repeated. Where two headings read alike, the source gives them in different places.
# Key:
# Calpain [1] = experiment: Monkey study, oral leupeptin: muscle calpain activities; assay type: in vivo, monkeys
# Text: However, the trend in activities, as was expected, when comparing control, left muscle to right, denervated, leupeptin-treated muscle, was an overall decrease in calpain activity after leupeptin treatment. The mean decrease in calpain activity in the right opponens pollicis muscles of leupeptin treated animals was 30%. The mean decrease in calpain activity in the right abductor pollicis muscles of leupeptin-treated animals was 24%.
# [2] = tested on: opponens and abductor myofibers; experiment: Monkey study, intramuscular leupeptin: muscle morphology after delayed median nerve repair; assay type: in vivo, Cebus apella
# Text: (§1) In order to test the hypothesis that in vivo inhibition of calpains by leupeptin can facilitate neuromuscular recovery by inhibiting denervation atrophy of the skeletal-muscle target after complete peripheral nerve transection and delayed nerve repair (7), a monkey study (Cebus apella) was undertaken. This median-nerve model was chosen to approximate human anatomic and regenerative aspects.
# [3] = Monkey study, intramuscular leupeptin: toxicology and echocardiograms; assay type: in vivo, Cebus apella
# Protocol: as §1
# Complete blood counts and clotting times after intramuscular leupeptin administration at 18 mg/kg, twice daily for 24 weeks, were not affected in treated animals, when compared to controls. In controls, mean values were as follows: WBC=4.83±1.04×10^3; RBC=5.34±0.34×10^6; hematocrit=37.97%±2.09; platelets=3.30±0.05×10^5; prothrombin time=9.68±0.36 sec; partial thromboplastin time=28.78±1.32 sec. In treated animals, mean values were: WBC=6.67±2.26×10^3; RBC=5.55±0.26×10^6; hematocrit=38.18%+1.69; platelets 4.33±0.18×10^5; prothrombin time=10.88±0.49 sec; partial thromboplastin time=33.06±0.76 sec.
# Echocardiograms: To assure that leupeptin was causing no pathological effects on heart muscle, the cardiac lateral wall and septum were measured in millimeters in all animals prior to leupeptin treatment and 25 weeks after delayed nerve repair. Prior to treatment, in animals designated as controls, the lateral wall was 2.88±0.33 mm and the septum was 2.84±0.2 mm. Twenty-five weeks later in control animals, the lateral wall was 3.0±0.5 mm and the septum was 2.9±0.2 mm. Prior to treatment, in animals designated to receive leupeptin, the lateral wall was 3.5±0.2 mm and the septum was 2.9±0.4 mm. Twenty-five weeks later, in leupeptin-treated animals, the lateral wall was 3.2±0.1 mm and the septum was 2.8±0.3 mm. Importantly, there were no significant statistical differences within either the control or treatment groups or between the control and treatment groups (data not shown).
# Duchenne patients = experiment: Preliminary safety trial of oral leupeptin in DMD children; assay type: in vivo
# Protocol: Leupeptin's low toxicity, non-immunogenicity and stability profile have made it a potential drug for eventual human use. In this regard, a preliminary safety trial of leupeptin in seven Italian DMD children with ages varying from 7-10 was performed. The trial was approved by the Italian Ministry of Health and the leupeptin supplied by the Nippon Kayaku Co., Japan. […] During the process of muscle degeneration, muscle cells break open and their contents find their way into the bloodstream. […] CK levels can be slightly elevated (500 U/L) in some nerve disorders, or grossly elevated (5,000 to 15,000 U/L) in DMD or inflammatory myopathies. Importantly the significant decline in CK levels after treatment with leupeptin indicates a significant improvement (lessening of muscle breakdown) in these individuals, especially in the child given 100 mg twice daily.
# [4] = tested on: rat hind limb muscle (sciatic nerve denervation); details: for % loss (muscle atrophy due to denervation): rat
# Protocol: Denervation was carried out on one of the hind limb sciatic nerves of the rat. Denervation was allowed to proceed for 7 days. Either leupeptin or CLA was injected 2×/day in forelimb muscle for seven days. The non-denervated hind limb was used as the control. Leupeptin and/or CLA were injected into alternating forelimb muscles for a period of seven days after which, animals were sacrificed, muscles excised and weighed.
# calpain [5] = experiment: Calpain activities of muscle samples from leupeptin-treated MDX mice; assay type: in vivo, mouse; details: for Calpain activities of muscle samples, Anterior tibialis / Calpain activities of muscle samples, Diaphragm / Calpain activities of muscle samples, Gastrocnemius / Calpain activities of muscle samples, Soleus: mdx mice, average of 3 determinations
# Protocol: (§2) It is well documented that as, observed in DMD and BMD, dystrophin is dysfunctional/absent in the murine MDX model of muscular dystrophy. […] A series of studies to test the ability of the calpain inhibitor, leupeptin, to delay and/or prevent features of calcium-induced damage to dystrophic myofibers was initiated. Control C57BL/10SNJ mice were treated with intramuscular injections of normal saline. The MDX mice were treated intramuscularly with either normal saline or 12 mg/kg leupeptin or 18 mg/kg leupeptin twice daily. All injections were delivered in the hind-limbs in various locations to avoid muscle damage due to repeated injections at the same location. The gastrocnemius, soleus, anterior tibialis, and diaphragm muscles were examined in all animals.
# To further examine whether the beneficial/protective action of leupeptin was associated with a change in calpain activity, the activity of the enzyme was assessed in the muscle various muscles taken from the control, and MDX […]±treatment with leupeptin.
# MDX mice = experiment: MDX mouse study: myofiber diameter after intramuscular leupeptin; assay type: in vivo; details: for Myofiber diameter, Anterior tibialis / Myofiber diameter, Diaphragm / Myofiber diameter, Gastrocnemius / Myofiber diameter, Soleus: mdx mice, ± SD
# Protocol: as §2
# [6] = left, unoperated hand of leupeptin treated monkeys, 24 weeks
# [7] = leupeptin-treated monkeys, twenty-five weeks after delayed nerve repair
# [8] = monkeys, intramuscular leupeptin 18 mg/kg twice daily for 24 weeks
# [9] = 12 mg/kg leupeptin intramuscularly twice daily
# [10] = 18 mg/kg leupeptin intramuscularly twice daily
structure (smiles),measurement,setting,value
CC(=O)N[C@@H](CC(C)C)C(=O)N[C@@H](CC(C)C)C(=O)N[C@H](C=O)CCCNC(=N)N [Leupeptin],mean decrease in calpain activity,Calpain [1]; right abductor pollicis muscles of oral leupeptin-treated monkeys,24%
same,mean decrease in calpain activity,Calpain [1]; right opponens pollicis muscles of oral leupeptin treated monkeys,30%
same,"mean myofiber diameter, abductor",[2]; [6],40.43±2.23 μm
same,"mean myofiber diameter, opponens",[2]; [6],43.25±4.26 μm
same,myofiber diameter vs control animals,"[2]; right, nerve-repaired hand, opponens and abductor, 12 and 24 weeks (FIG. 3)",statistically significant increase
same,cardiac lateral wall (echocardiogram),[3]; [7],3.2±0.1 mm
same,cardiac septum (echocardiogram),[3]; [7],2.8±0.3 mm
same,RBC,[3]; [8],5.55±0.26×10^6
same,WBC,[3]; [8],6.67±2.26×10^3
same,"blood chemistry analyses, treated vs control",[3]; [8],no significant differences between treated and control animals
same,hematocrit,[3]; [8],38.18%
same,partial thromboplastin time,[3]; [8],33.06 ± 0.76 s
same,platelets,[3]; [8],4.33±0.18×10^5
same,prothrombin time,[3]; [8],10.88 ± 0.49 s
same,muscle function tests vs start of trial,"Duchenne patients; DMD children, at 6 months and one year",little decline in muscle strength
same,blood chemistries over the year,"Duchenne patients; DMD children, oral leupeptin for one year",no abnormalities
same,CREATINE KINASE After 1 yr.,"Duchenne patients; Duchenne patient, oral leupeptin 100 mg twice daily",375 Units/100 ml
same,CREATINE KINASE After 1 yr.,"Duchenne patients; Duchenne patients (one line per patient), oral leupeptin 50 mg twice daily","2,500 Units/100 ml (2×) and 4,100 Units/100 ml and 2,700 Units/100 ml and 3,300 Units/100 ml and 3,500 Units/100 ml"
same,tolerability / adverse effects,"Duchenne patients; in vivo, po",well tolerated
same,% loss (muscle atrophy due to denervation),[4]; 1.5 mg/kg injected 2x/day for seven days,30.9 ± 4%
same,% loss (muscle atrophy due to denervation),[4]; 15.0 mg/kg injected 2x/day for seven days,2.6 ± 0.3%
same,health / toxic effect in denervation study,"[4]; rats, seven days of injections",remained healthy without any apparent negative toxic effect
same,decrease in calpain activity vs untreated MDX muscles,"calpain [5]; anterior tibialis, 12 mg/kg",50%
same,decrease in calpain activity vs untreated MDX muscles,"calpain [5]; anterior tibialis, 18 mg/kg",77%
same,decrease in calpain activity vs untreated MDX muscles,"calpain [5]; diaphragm, 12 mg/kg",51%
same,decrease in calpain activity vs untreated MDX muscles,"calpain [5]; diaphragm, 18 mg/kg",71%
same,decrease in calpain activity vs untreated MDX muscles,"calpain [5]; gastrocnemius, 12 mg/kg",84%
same,decrease in calpain activity vs untreated MDX muscles,"calpain [5]; gastrocnemius, 18 mg/kg",60%
same,"Calpain activities of muscle samples, Anterior tibialis",calpain [5]; 12 mg/kg leupeptin,155 ± 16 cpm/200-μg protein
same,"Calpain activities of muscle samples, Diaphragm",calpain [5]; 12 mg/kg leupeptin,26 ± 4 cpm/200-μg protein
same,"Calpain activities of muscle samples, Gastrocnemius",calpain [5]; 12 mg/kg leupeptin,27 ± 7 cpm/200-μg protein
same,"Calpain activities of muscle samples, Soleus",calpain [5]; 12 mg/kg leupeptin,187 ± 16 cpm/200-μg protein
same,"Calpain activities of muscle samples, Anterior tibialis",calpain [5]; 18 mg/kg leupeptin,71 ± 11 cpm/200-μg protein
same,"Calpain activities of muscle samples, Diaphragm",calpain [5]; 18 mg/kg leupeptin,17 ± 5 cpm/200-μg protein
same,"Calpain activities of muscle samples, Gastrocnemius",calpain [5]; 18 mg/kg leupeptin,67 ± 8 cpm/200-μg protein
same,"Calpain activities of muscle samples, Soleus",calpain [5]; 18 mg/kg leupeptin,102 ± 9 cpm/200-μg protein
same,decrease in calpain activity vs untreated MDX muscles,"calpain [5]; soleus, 12 mg/kg",44%
same,decrease in calpain activity vs untreated MDX muscles,"calpain [5]; soleus, 18 mg/kg",70%
same,increase in myofiber diameter vs untreated MDX muscle,"MDX mice; anterior tibialis, 12 mg/kg",35%
same,increase in myofiber diameter vs untreated MDX muscle,"MDX mice; anterior tibialis, 18 mg/kg",36%
same,increase in myofiber diameter vs untreated MDX muscle,"MDX mice; diaphragm, 12 mg/kg",25%
same,increase in myofiber diameter vs untreated MDX muscle,"MDX mice; diaphragm, 18 mg/kg",25%
same,increase in myofiber diameter vs untreated MDX muscle,"MDX mice; gastrocnemius, 12 mg/kg",37%
same,increase in myofiber diameter vs untreated MDX muscle,"MDX mice; gastrocnemius, 18 mg/kg",39%
same,"Myofiber diameter, Anterior tibialis",MDX mice; [9],37.5 ± 2.8 µm
same,"Myofiber diameter, Diaphragm",MDX mice; [9],21.8 ± 0.9 µm
same,"Myofiber diameter, Gastrocnemius",MDX mice; [9],32.9 ± 2.6 µm
same,"Myofiber diameter, Soleus",MDX mice; [9],24.7 ± 1.8 µm
same,"Myofiber diameter, Anterior tibialis",MDX mice; [10],38.3 ± 1.3 µm
same,"Myofiber diameter, Diaphragm",MDX mice; [10],21.7 ± 1.8 µm
same,"Myofiber diameter, Gastrocnemius",MDX mice; [10],34 ± 2.7 µm
same,"Myofiber diameter, Soleus",MDX mice; [10],25.5 ± 2.3 µm
same,increase in myofiber diameter vs untreated MDX muscle,"MDX mice; soleus, 12 mg/kg",22%
same,increase in myofiber diameter vs untreated MDX muscle,"MDX mice; soleus, 18 mg/kg",25%
